Experimental findings from patent publication US5026711A, “4-amino quinolines and naphthyridines and their use as medicines” (priority 1988, dated 1991) are described below.

Structures are written as SMILES.

The nature of data set [1]: oral acute toxicity in the mouse (LD50). Conditions: for LD50: in vivo, oral route. In kind it is in vivo. The method, then: The compounds of Examples 3, 67, 90, 107 and 114 are atoxic at the dose of 500 mg/kg in the mouse.
The target in data set [2] is T1, benzodiazepine receptors of the peripheral type (Felis catus, UniProt A0ABI7ZQW3).
T1 sequence (A0ABI7ZQW3 15-183): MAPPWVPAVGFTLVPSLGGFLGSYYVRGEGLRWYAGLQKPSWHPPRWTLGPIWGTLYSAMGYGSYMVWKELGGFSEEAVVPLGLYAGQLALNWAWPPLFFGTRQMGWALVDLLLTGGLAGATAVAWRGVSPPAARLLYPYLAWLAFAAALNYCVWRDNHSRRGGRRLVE
Briefly: inhibition of specific binding of [3H] PK11195 to peripheral type benzodiazepine receptors, membrane proteins of cat brain. The following applies: [3H] PK11195 0.5 nM, cat brain membranes, 4° C., 2h30; read-out: IC50 (peripheral). Here is the method:
The method is similar to that described by J. Benavides et al. in Brain Res. Bull. 13 p. 69-77 (1984) and references cited therein.
Suspensions of membrane proteins of cat brain were prepared as described by J. Benavides.
The assays of inhibition of the binding of [^3 H]
Non specific binding was defined as the amount of [^3 H]

For data set [3], the target named is central benzodiazepine receptors. As to the kind of experiment: inhibition of specific binding of [3H] flunitrazepam to central benzodiazepine receptors, rat brain. Conditions: 4° C., pH 7.4. Here is the method: (b) determination of the concentration of the product under study inhibiting 50% of the specific binding of flunitrazepam to the central receptors.
The brains of rats were removed after decapitation and ground, then placed in suspension in an aqueous solution of sucrose (0.32M). The mixture is centrifuged and the pellet is resuspended to give a homogenous suspension in a TRIS-HCl buffered solution (50 mM; pH=7.4). Aliquots of this suspension are incubated at 4° C. after addition of [^3 H] flunitrazepam, alone or with increasing amounts of the compound to be tested.

The test system of data set [4] is receptors of the peripheral type. Briefly: in vivo inhibition of [3H] PK11195 binding to peripheral type receptors in organs of the mouse. Conditions: 25 mg/kg oral. Here is the method:
The assays were carried out in the mouse by using the binder [^3 H]
The products to be tested are administered orally in suspension in an aqueous solution of carboxymethylcellulose (1% wt/v) to groups of 4 mice 35 mn before the intravenous injection of [^3 H] […] 5 mn after the injection the animals are sacrificed by decapitation and the different organs are removed and ground in 10 ml Tris-HCl buffer (50 mM; pH=7.4) to give homogenates.
The control groups only received the carboxymethylcellulose solution and the injection of [^3 H]
A determination was made for each organ by means of scintigraphy of:
1--the amount of radioactive binder present in an organ by measuring the radioactivity of an aliquot of the homogenate.
2--the amount of radioactive binder bound to the membrane tissues of an organ by measuring the radioactivity bound on a fiber glass filter after filtration of another aliquot of the homogenate.
3--the amount of radioactive binder bound non-specifically to the membrane tissues by incubating a control homogenate with an excess of RO5-4864, a known binder, followed by binding of the membranes to a filter and measurement of the radioactivity remaining on the membranes.
The inhibition of specific binding, recorded as SB, is equal to the difference between the radioactivity measurements 2 and 3 divided by measurement 1.
The percentages of inhibition of the binding in different organs determined for compounds of the invention and the reference substances are shown in table VI; they are given by the formula: [formula]

Consider `CCCN(CCC)C(=O)C(C)Nc1c(C(=O)OCC)cnc2ccc(Cl)cc12` (stereo not shown) [SR 26058], for which the “atoxic at the dose of 500 mg/kg” value in data set [1] is “atoxic”. As usually defined, the LD50 is the dose at which mortality reaches 50%. A lower LD50 goes with a more toxic substance. `CCCN(CCC)C(=O)C(C)Nc1c(C(=O)OCC)cnc2cc(C(F)(F)F)ccc12` (stereo not shown) [SR 26241, ethyl 4-[1-(N,N-dipropylcarbamoyl)ethylamino] 7-trifluoromethyl quinoline 3-carboxylate] gave an LD50 in data set [1] of 1100 mg/kg. With `CN(C(=O)CNc1c(C(=O)c2ccccc2)cnc2cccnc12)c1ccc(Cl)cc1` [SR 26276], in data set [1], the LD50 was more than 1800 mg/kg. As for `CC(Nc1c(C(=O)c2ccccc2)cnc2cccnc12)C(=O)N(C)c1ccc(Cl)cc1` (stereo not shown) [SR 26455], the “atoxic at the dose of 500 mg/kg” value in data set [1] was “atoxic”. The same measure, in the same setting: next, `CN(C(=O)CCNc1c(C(=O)c2ccccc2)cnc2cccnc12)c1ccc(Cl)cc1` [SR 26731]: “atoxic”; `CN(C(=O)CNc1c(C(=O)c2ccccc2)cnc2cccnc12)c1ccc(Cl)cc1Cl` [SR 26972]: “atoxic”; `COc1ccc(N(C)C(=O)CNc2c(C(=O)c3ccccc3)cnc3cc(Br)ccc23)cc1` [SR 27195]: “atoxic”. What is called IC50 is the concentration that gives 50% inhibition. Take `CN(C(=O)CNc1c(C(=O)c2ccccc2)cnc2cc(Br)ccc12)c1ccc(Cl)cc1` [compound 26876]: the IC50 in data set [2] was 0.5 nM; in data set [3], more than 10 µM. In data set [4], the “% Inhibition, brain” value came to 84%. The “% Inhibition, spleen” value in data set [4] worked out at 64%. On the same counts, the results for `COc1ccc(C(=O)c2cnc3cccnc3c2NCC(=O)N(C)c2ccc(Cl)cc2)cc1` [compound 27153] are 1.62 nM, 47.9 µM, 87% and 52%. Taken in the same sequence, the figures for `COc1ccc(N(C)C(=O)CNc2c(C(=O)c3ccccc3)cnc3cccnc23)cc1` [compound 27161] were 2.3 nM, more than 10 µM, 92% and 78%.
